Source: patent publication US20260232851A1, “METHODS FOR THE DETECTION AND DIAGNOSIS OF CANCERS ASSOCIATED WITH OVEREXPRESSION OF PSMA RECEPTOR” (CLARITY PHARMACEUTICALS LIMITED, priority 2023, published 2026)
Entries after “also recorded” stand apart in the source; their conditions may differ. Marks after values point to notes of the source that are not given here.

Columns and labels:
PSMA receptor [1] = target: T1, PSMA receptor (Homo sapiens, UniProt Q04609); experiment: Blinded central reader detection of primary prostate cancer and lesions on PET/CT; type: in vivo; conditions: for % TPR (True Positive Rate), detection of primary prostate cancer: 200 MBq ^64Cu-Sar-bisPSMA; for % FNR (False Negative Rate): indeterminate results analysed as negative; for Detection of secondary lesion in lymph node by PET/CT (FIG. 3): same subject imaged with both tracers
T1 construct: localises at sites that overexpress the PSMA receptor and are indicative of a cancer; from tissue; host or cells: Primary prostate cancer and metastatic lesions (lymph node, bone, prostatic bed) in living patients
Experimental: Patients with untreated, histopathology-proven, intermediate- to high-risk PC, planned for radical prostatectomy underwent ^68Ga-PSMA-11 PET/CT per institutional practice and were subsequently allocated to 1 out of 3 dose cohorts (1:1:3) to receive either 100 MBq, 150 MBq or 200 MBq of ^64Cu-SAR-bisPSMA, respectively. The specified dose of ^64Cu-Sar-bisPSMA was administered to each patient as a single bolus IV injection. […] PET/CT scans at other times after injection of the compound were acquired as required.
Patients were scanned using the standard clinical whole-body PET/CT acquisition protocol defined for each clinical site and in accordance with the Image Acquisition Manual, which contains details of scan acquisition, processing parameters and quality assurance procedures. The same scanner was used for each visit. Typical imaging acquisition parameters are below:
Two independent, blinded, central readers assessed the detection of primary PC on the 200 MBq ^64Cu-SAR-bisPSMA PET/CTs as the primary endpoint. To compare the intensity of lesions on ^68Ga-PSMA-11 and ^64Cu-SAR-bisPSMA PET, both readers determined the SUVs (SUVmax, SUVmean) and tumour-to-background ratio (ratio of lesion SUVmax and background SUVmean) in up to 5 concordant lesions between ^68Ga-PSMA-11 and ^64Cu-SAR-bisPSMA PET/CT as an exploratory endpoint.
Table 5 compares the number of positive, negative and indeterminate images as assessed by each reader. Reader 1 detected primary prostate cancer in 100% of patients to whom 200 MBq of ^64Cu-Sar-bisPSMA was administered, while Reader 2 detected 85.7% of patients. This is in contrast to 77.8% and 83.3%, respectively, when ^68Ga-PSMA-11 was administered.
The number of lesions detected by each reader with imaging by either ^64Cu-Sar-bisPSMA or ^68Ga-PSMA-11 was evaluated. For both readers, the total number of lesions, the mean and median number of lesions detected as a result of imaging by ^64Cu-Sar-bisPSMA was higher when compared with imaging by ^68Ga-PSMA-11, with the difference in these values being statistically significant.

PSMA receptor [2] = target: T1, PSMA receptor; experiment: Same-day (Day 0) versus next-day (Day 1) PET imaging of patients; type: in vivo
LNCap tumor = experiment: Ex vivo tumor uptake in LNCap tumor bearing NSG mice
Description: Ex vivo tumor uptake expressed as percentage injected activitiy per gram of tissue (% lAg) (mean±/−SEM, n=3/group) in LNCap tumor bearing NSG mice following injection of either monomeric [^64Cu]Cu-SarPSMA (2 MBq, 0.9 nmol of peptide) or dimeric [^64Cu]Cu-Sar-bisPSMA (2 MBq, 0.2 nmol of peptide).

[3] = Reader 1, 200 MBq cohort, scans/evaluable scans
[4] = Reader 2, 200 MBq cohort, 4 ^64Cu scans excluded as non-evaluable
[5] = next-day imaging, Day 1, same subject

T1 sequence (Q04609 whole entry): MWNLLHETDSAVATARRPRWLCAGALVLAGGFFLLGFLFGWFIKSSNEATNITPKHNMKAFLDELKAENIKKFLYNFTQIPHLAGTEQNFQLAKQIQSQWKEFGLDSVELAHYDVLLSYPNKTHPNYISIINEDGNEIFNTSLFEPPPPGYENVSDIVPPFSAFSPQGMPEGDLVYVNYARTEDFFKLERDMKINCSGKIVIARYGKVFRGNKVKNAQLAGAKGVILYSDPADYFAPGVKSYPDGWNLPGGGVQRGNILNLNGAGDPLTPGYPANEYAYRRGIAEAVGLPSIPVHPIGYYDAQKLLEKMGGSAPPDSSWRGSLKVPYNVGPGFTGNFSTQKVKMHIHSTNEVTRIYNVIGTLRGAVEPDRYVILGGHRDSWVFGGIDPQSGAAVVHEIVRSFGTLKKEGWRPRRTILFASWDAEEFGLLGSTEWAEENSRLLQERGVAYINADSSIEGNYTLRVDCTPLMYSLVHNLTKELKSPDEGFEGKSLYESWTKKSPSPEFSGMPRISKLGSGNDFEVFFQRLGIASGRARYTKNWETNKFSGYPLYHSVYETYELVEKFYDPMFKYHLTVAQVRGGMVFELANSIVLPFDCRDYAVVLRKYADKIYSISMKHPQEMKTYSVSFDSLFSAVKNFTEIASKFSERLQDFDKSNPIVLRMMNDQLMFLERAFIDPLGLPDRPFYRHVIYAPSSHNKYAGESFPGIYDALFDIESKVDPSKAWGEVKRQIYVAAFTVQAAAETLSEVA

For Sar-bisPSMA [^64Cu-SAR-bisPSMA], the “Mean Difference in number of lesions (^64Cu − ^68Ga)” value (shortened to “Mean Difference in number of lesions”) (PSMA receptor [1]; 200 MBq Cohort, Reader 1) was 0.28, the “Mean Number of Lesions per Participant” value (PSMA receptor [1]; 200 MBq Cohort, Reader 1) was 2.3 and the “Median Difference in number of lesions (^64Cu − ^68Ga)” value (“Median Difference in number” for short) (PSMA receptor [1]; 200 MBq Cohort, Reader 1) was 0.0. The “Median Number of Lesions per Participant” value (PSMA receptor [1]; 200 MBq Cohort, Reader 1) was 2, the “Total # of Lesions Detected (all participants)” value (from here on “Total # of Lesions Detected”) (PSMA receptor [1]; 200 MBq Cohort, Reader 1) was 41 and the “Mean Difference in number of lesions” value (PSMA receptor [1]; 200 MBq Cohort, Reader 2) was 0.64. For the same substance, the “Mean Number of Lesions per Participant” value (PSMA receptor [1]; 200 MBq Cohort, Reader 2) was 2.2, the “Median Difference in number” value (PSMA receptor [1]; 200 MBq Cohort, Reader 2) was 0.0 and the “Median Number of Lesions per Participant” value (PSMA receptor [1]; 200 MBq Cohort, Reader 2) was 2. For the same substance, the “Total # of Lesions Detected” value (PSMA receptor [1]; 200 MBq Cohort, Reader 2) was 31, the “Mean Difference in number of lesions” value (PSMA receptor [1]; All Cohorts, Reader 1 (N = 29)) was 0.41 and the “Mean Number of Lesions per Participant” value (PSMA receptor [1]; All Cohorts, Reader 1 (N = 29)) was 2.2. The “Median Difference in number” value (PSMA receptor [1]; All Cohorts, Reader 1 (N = 29)) was 0.0, the “Median Number of Lesions per Participant” value (PSMA receptor [1]; All Cohorts, Reader 1 (N = 29)) was 2 and the “Total # of Lesions Detected” value (PSMA receptor [1]; All Cohorts, Reader 1 (N = 29)) was 63. The “Mean Difference in number of lesions” value (PSMA receptor [1]; All Cohorts, Reader 2 (N = 17)) was 0.52, the “Mean Number of Lesions per Participant” value (PSMA receptor [1]; All Cohorts, Reader 2 (N = 17)) was 2 and the “Median Difference in number” value (PSMA receptor [1]; All Cohorts, Reader 2 (N = 17)) was 0.0. The “Median Number of Lesions per Participant” value (PSMA receptor [1]; All Cohorts, Reader 2 (N = 17)) was 4, the “Total # of Lesions Detected” value (PSMA receptor [1]; All Cohorts, Reader 2 (N = 17)) was 34 and the “% TPR (True Positive Rate), detection of primary prostate cancer” value (from here on “% TPR (True Positive Rate), detection”) (PSMA receptor [1]; Reader 1) was 100.0%. The “Positive images (primary prostate cancer)” value (PSMA receptor [1]; Reader 1, 200 MBq ^64Cu-Sar-bisPSMA cohort, scans/evaluable scans) was 18/18, the “% TPR (True Positive Rate), detection” value (PSMA receptor [1]; Reader 1, listed as 64Cu-Sar-bisPSMA) was 100% and the Indeterminate images (PSMA receptor [1]; [3]) was 0/18. The Negative images (PSMA receptor [1]; [3]) was 0/18, the “% FNR (False Negative Rate)” value (PSMA receptor [1]; Reader 1) was 0.0% and the “% TPR (True Positive Rate), detection” value (PSMA receptor [1]; Reader 2) was 85.7%. The Indeterminate images (PSMA receptor [1]; [4]) was 2/14*, the Negative images (PSMA receptor [1]; [4]) was 0/14* and the “Positive images (primary prostate cancer)” value (PSMA receptor [1]; [4]) was 12/14*. For the same substance, the “% FNR (False Negative Rate)” value (PSMA receptor [1]; Reader 2) was 14.3%, the “Total, mean and median number of lesions detected compared with ^68Ga-PSMA-11” value (PSMA receptor [1]; both readers) was “higher” and the “Detection of secondary lesion in lymph node by PET/CT (FIG. 3)” value (PSMA receptor [1]) was “Detection of a secondary lesion”. For the same substance, the “Detection of secondary lesion in lymph node by PET/CT (FIG. 3)” value (PSMA receptor [1]; listed as compound of Formula (I) complexed with ^64Cu) was “clearly identifies a lesion”, the “Increase of SUVmax, next-day compared to same-day imaging (FIG. 7)” value (PSMA receptor [2]; Day 1 vs Day 0) was “more than double” and the “SUVmax Day 1 relative to previous day (FIG. 9)” value (PSMA receptor [2]; Day 1 vs same day) was 4 times. For the same substance, the “Average SUVmax for the bone and pelvic lymph node lesions (FIG. 11B)” value (PSMA receptor [2]; following day imaging, same patient) was 20.0, the “Lesion visualisation on PET (words)” value (PSMA receptor [2]; next-day imaging (Day 1), FIGS. 8-12, listed as 64Cu Sar-bisPSMA) was “clearly identified a lesion” and the “Lesion visualisation on PET (words)” value (PSMA receptor [2]; next-day imaging (Day 1), FIGS. 8-12, listed as 64Cu-Sar-bisPSMA) was “identified by three readers; also recorded: more positive lesions; also recorded: only visualised with imaging on the following day; also recorded: additional positive lesions”. The “Lesion visualisation on PET (words)” value (PSMA receptor [2]; next-day imaging (Day 1), FIGS. 8-12, listed as compound of Formula (I) complexed with ^64Cu) was “successfully identifies a lesion”, the “SUVmax of lesion (FIG. 9C)” value (PSMA receptor [2]; [5]) was 17.5 and the “SUVmax of positive pelvic lymph node lesion (FIG. 7)” value (PSMA receptor [2]; [5]) was 50.4. The “Average SUVmax for the bone and pelvic lymph node lesions (FIG. 11A)” value (PSMA receptor [2]; same day imaging, one patient) was 9.8, the “Lesion visualisation on PET (words)” value (PSMA receptor [2]; same-day imaging (Day 0), FIGS. 8-9, listed as 64Cu Sar-bisPSMA) was “negative” and the “Lesion visualisation on PET (words)” value (PSMA receptor [2]; same-day imaging (Day 0), FIGS. 8-9, listed as 64Cu-Sar-bisPSMA) was “less apparent; also recorded: not visualised”. For the same substance, the “Lesion visualisation on PET (words)” value (PSMA receptor [2]; same-day imaging (Day 0), FIGS. 8-9, listed as compound of Formula (I) complexed with ^64Cu) was “does not clearly visualise a lesion”, the “SUVmax of positive pelvic lymph node lesion (FIG. 7)” value (PSMA receptor [2]; same-day imaging, Day 0, one subject) was 20.8 and the “SUVmax of lesion (FIG. 9B)” value (PSMA receptor [2]; same-day imaging, same subject) was 4.3. The “Amount retained at the tumor site relative to ^64Cu-SarPSMA (FIG. 1)” value (LNCap tumor; 6 and 24 hours after administration) was “far greater”, the “Ex vivo tumor uptake relative to monomeric ^64Cu-Sar-PSMA (FIG. 1)” value (LNCap tumor; 1 hour after administration, 2 MBq, n=3/group) was “approximately double” and the “Uptake and retention at tumors, dimer versus monomer (FIG. 1)” value (LNCap tumor; mouse, in vivo) was “higher uptake and retention”.
